# Experimental data from PMC9486805, “Identification of a Phage Display-Derived Peptide Interacting with the N-Terminal Region of Factor VII Activating Protease (FSAP) Enables Characterization of Zymogen Activation” (ACS Chemical Biology, 2022).
# What was measured:
# [1] = target: T1, pro-FSAP purified from human plasma (Homo sapiens, UniProt Q14520); experiment: Pro-FSAP activation assay, purified pro-FSAP, chromogenic substrate S-2288; assay type: biochemical
# T1 construct: Pro-FSAP was isolated from human plasma as described before; from tissue; host or cells: human plasma
# T1 sequence (Q14520 24-560): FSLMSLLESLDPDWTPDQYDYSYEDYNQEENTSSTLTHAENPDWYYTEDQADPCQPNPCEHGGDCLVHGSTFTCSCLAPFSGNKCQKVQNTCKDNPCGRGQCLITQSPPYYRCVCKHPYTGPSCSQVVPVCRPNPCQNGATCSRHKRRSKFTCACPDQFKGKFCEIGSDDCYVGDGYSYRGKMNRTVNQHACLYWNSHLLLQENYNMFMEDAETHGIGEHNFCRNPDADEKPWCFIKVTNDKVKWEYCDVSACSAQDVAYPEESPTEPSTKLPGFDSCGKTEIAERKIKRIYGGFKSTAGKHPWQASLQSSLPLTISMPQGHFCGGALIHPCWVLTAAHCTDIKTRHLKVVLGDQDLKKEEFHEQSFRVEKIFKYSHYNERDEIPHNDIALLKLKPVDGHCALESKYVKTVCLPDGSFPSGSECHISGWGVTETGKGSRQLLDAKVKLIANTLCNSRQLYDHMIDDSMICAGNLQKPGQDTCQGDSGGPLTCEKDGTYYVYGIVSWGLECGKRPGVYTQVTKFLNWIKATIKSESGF
# Experimental: Figure 1 Isolation of pro-FSAP binding peptides and their activity: (A) strategy to isolate high-affinity phages from the NNKC9 and NNK11 libraries that bind to pro-FSAP. To select for strong binders, an excess of free pro-FSAP protein was used for competitive elution of low-affinity binders. High-affinity binders retained on the beads were analyzed further. The sequences of major positive clones identified through an ELISA-based binding assay from the NNKC9 and NNK11 libraries are shown. (B) NNK11/189 and scrambled controls (0–50 μM) and histones (0–50 μg/mL) were added to purified pro-FSAP (1.0 μg/mL) and the turnover of the chromogenic substrate S-2288 (200 μM) was measured. (C) NNKC9/41 was compared to a peptide that was synthetically monocyclized (Cys–Cys cyclic), a peptide with Ser residues instead of Cys at both ends (Ser–Ser linear), a peptide with Ser residues at the end cyclized head to tail (Ser–Ser cyclic), and a scrambled peptide in a pro-FSAP activation assay. (D) Hirudin plasma (1:12 dilution) was incubated with histones (25 μg/mL), NNKC9/41, or Ser–Ser linear control (each, 25 μM), the fluorogenic substrate turnover (Ac–Ala–Lys–Nle–Arg–AMC) was monitored in duplicate wells, and results from a single well are shown. In panels (B) and (C), results are shown as mean + range (duplicate wells). Results were replicated with five different batches of NNKC9/41 (panels (B) and (C)).
# Pro-FSAP was isolated from human plasma as described before.[14] The content of the zymogen form varied from 50% to 90% due to autoactivation during the purification process. Histones, isolated from the calf thymus, were obtained from Sigma-Aldrich (Oslo, Norway). FSAP activity assays were performed as described previously.[51] In brief, microtiter wells were blocked with TBS (25 mM Tris–HCl, pH 7.5, and 150 mM NaCl) containing 3% (w/v) BSA for 1 h and washed with TBS-T. The standard assay consisted of TBS-T with 0.3% (w/v) BSA and CaCl2 (2 mM) 1 μg/mL (15 nM) plasma purified pro-FSAP and 250 μM chromogenic substrate S-2288 (D-Ile-L-Pro-L-Arg-p-nitroaniline dihydrochloride) (Haemochrome Diagnostica, Essen, Germany) and was followed at 37 °C at 405 nm in a microplate reader Synergy HI plate reader (BioTek Instruments, Winooski). In some experiments, a fluorescent substrate of FSAP[35] was used.
# [2] = tested on: ΔEGF3 mutant; experiment: Binding of biotinylated peptides to captured ΔEGF3 mutant; set-up: species or system human; details: peptide 1 μM; triplicate wells (Fig 2E)
# Experimental: Figure 2 NNKC9/41 interacts with the NTR of pro-FSAP: (A) To determine peptide binding to pro-FSAP, wells were coated with 2 μg/mL pro-FSAP and biotinylated NNKC9/41 and NNK11/189 and their respective scrambled controls were added in different concentration (0–5 μM). Peroxidase-labeled streptavidin was used to detect peptide binding. (B) Same procedure as in (A) except that different proteins were immobilized and biotinylated NNKC9/41 (0–30 μM) was added and its binding was measured. (C) Schematic structure of pro-FSAP with the heavy chain consisting of an NTR, three EGF domains, and a kringle domain, followed by the light chain harboring the serine protease domain (SPD). The binding domains of antibodies used in this study are indicated. (D) Recombinant complete heavy chain (heavy) and truncated heavy chain variants ΔNTR, ΔEGF1, ΔEGF2, ΔEGF3, and ΔKringle were expressed in bacteria and analyzed by sodium dodecyl sulfate poly(acrylamide) gel electrophoresis (SDS-PAGE) followed by Coomassie staining. […] Biotinylated NNKC9/41 or the scrambled control peptide was added at 1 μM and peptide binding was measured with peroxidase-linked streptavidin. […]
# Wells were coated with anti-FSAP polyclonal antibodies (5 μg/mL). […] Subsequently, the plates were washed, and bound peptides were detected with peroxidase-coupled streptavidin. […]
# [3] = tested on: plasmin; experiment: Specificity: plasmin; assay type: biochemical; details: plasmin 20 nM; peptide 0-50 μM; CS41 (Fig S7)
# Experimental: Fig S7. […]
# Bend, IN, USA) except plasminogen and FSAP, which were isolated in house; and pro-uPA was from Grünenthal (Stolberg, Germany). All chromogenic substrates were from Hyphen Biomed (Neuville Sur Oise, France). Experiments were carried out in TBS with Tween-20 (0.1 % wt/ vol) BSA (0.3% wt/vol) and CaCl2 (2 mM). Absorbance at 405 nm was measured over time and the enzyme activity is depicted was measured in duplicates (mean + or -range) and similar results were obtained in 3
# [4] = target: T2, pro-FSAP in human plasma (Homo sapiens, UniProt Q14520); experiment: Activation of endogenous pro-FSAP in plasma, fluorogenic substrate turnover; assay type: biochemical
# T2 construct: from tissue; host or cells: human hirudin or citrate plasma from healthy donors, diluted 1:12
# T2 sequence (Q14520 24-560): as above
sequence,measurement,setting,value
CRGAMWMYKRC [NNKC9/41],effect on pro-FSAP activation,"[1]; purified pro-FSAP 1.0 μg/mL, peptides 0–50 μM, histones 0–50 μg/mL, S-2288 (200 μM in legend b10, 250 μM in method b60), 37 °C, 405 nm, duplicate wells",able to robustly activate pro-FSAP
same,Maximal activation,"[1]; purified pro-FSAP, S-2288, linear synthetic peptide stored under oxidative conditions, duplicate wells, five batches",2–2.5 fold
same,selectivity for pro-FSAP activation,"[1]; versus plasminogen, pro-urokinase, factor XII, prothrombin, factor X and active enzymes",very high selectivity
same,peptide binding to ΔEGF3 mutant,[2],higher binding
same,effect on activity,[3],did not influence the activity
same,effect in citrate plasma 1:2,"[4]; citrate plasma 1:2, 10 μM, 3 donors (Fig S5)",completely abolished
same,pro-FSAP activation in 1:2 diluted plasma vs higher dilution,[4]; hirudin and citrate plasma 1:2 (Fig S5),lower pro-FSAP activation
